Results published in patent publication US7767671B2, “3-Quinolinecarbonitrile protein kinase inhibitors” (Wyeth, priority 2004, dated 2010).

Experiments:
[1] = system: Rat2 fibroblasts transformed with v-Src/Hu c-Src fusion gene; test: Anchorage independent Src-transformed fibroblast proliferation; format: cell-based; conditions: Rattus norvegicus, 120 h, suspension growth, MTS on Day 5, read-out: Src TF prolif IC50
Protocol: Anchorage Independent Src-transformed Fibroblast Proliferation Test Procedure: Rat2 fibroblasts stably transformed with a plasmid containing a CMV promotor controlled v-Src/Hu c-Src fusion gene in which the catalytic domain of human c-Src is inserted in place of the v-Src catalytic domain in the v-Src gene are used for the measurement of src dependent suspension growth. Ultra-low cluster plates (Costar #3474) are seeded with 10,000 cells per well on Day 1.

p60c-src = biological target: T1, p60c-src (Homo sapiens, UniProt P12931); test: Src kinase test procedure (ELISA); format: biochemical; conditions: cdc2 substrate peptide, (a) = average of two runs
T1 construct: purchased Upstate Biotechnologies
Protocol: Src Kinase Test Procedure
Inhibitors of p60^c-src (partially purified preparation purchased from Upstate Biotechnologies) tyrosine kinase activity are analyzed in an Elisa format. The Boehringer Mannheim Tyrosine Kinase Assay Kit (Catalog number 1-534505) with a cdc2 substrate peptide containing Tyr15 is used for the assay. HRP-conjugated anti-phosphotyrosine is used to detect phosphorylated peptide via a color reaction. Conditions recommended by the manufacturer are employed.
Reaction conditions: Five microliter aliquots of each compound prepared fresh at the time of the assay are added as a solution in 10 mM HEPES pH 7.5, 10% DMSO to the reaction well. Thirty-five microliters of reaction mix containing Src, buffer and peptide/bovine serum albumin mix are added to the compound wells and incubated at 30° C. for 10 minutes (reaction buffer: 50 mM Tris HCl pH 7.5, 10 mM MgCl2, 0.1 mM EGTA, 0.5 mM Na3VO4). The reaction is started by addition of 10 microliters of ATP, incubated at 30° C. for 1 hour, and stopped by addition of 20 microliters of 0.5M EDTA. The reaction mixture with the phosphorylated peptide is then transferred to a streptavidin-coated microtiter plate (provided in the kit) and allowed to bind for 20 minutes. Unbound peptide and reaction mixture is decanted and the plate is washed with PBS six times. Horseradish peroxidase-conjugated phosphotyrosine antibody supplied in the kit is incubated with the plate for one hour, then decanted. The plate is again ished with PBS six times. Substrate (provided in the kit) is added and absorbance at 405 nm is measured.
Activity is determined as % inhibition as calculated by the formula: (1−Abs/Abs(max))×100=% inhibition. Where multiple concentrations of the test agent are used, an IC50 (concentration which gives 50% inhibition) could be determined.

HT-29 cells = test: HT-29 cell proliferation on plastic (MTS); format: cell-based; conditions: Homo sapiens; HT-29 cells on plastic, MTS on day five; read-out: HT-29 prolif IC50
Protocol: Cell Proliferation Test Procedure for Inhibitors of Src Kinase
HT-29 cells: Compound effectiveness at inhibiting cell proliferation on plastic is performed in a 96-well format by plating 5000 cells per well in appropriate medium on day one, followed by compound addition on day 2 in serial two-fold dilutions. On day five, compound is washed away and medium containing MTS reagent (Promega) is added. Relative cell number is determined by reading the absorbance at 490 nm of a dye produced by an NAD-dependent cellular enzymatic reaction.

[2] = biological target: T2, Raf and/or Mek kinase (human c-Raf, GST-MEK1) (Homo sapiens, UniProt P04049+Q02750); test: Raf/Mek kinase cascade assay; format: biochemical; conditions: c-Raf dependent activation of GST-MEK and GST-MAPK, phospho-MAPK ELISA; (a)/(b)/(c) = average of two/three/four runs
T2 construct: Sf9 insect cell lysate containing full length 6his-tagged recombinant human c-Raf; 6His; host or cells: Sf9 insect cells (c-Raf, used as lysate); E. coli (MEK1-GST, GST-MAPK)
Protocol: Raf/Mek Kinase Cascade Assay Procedure
(Specific Activity: ˜200 U/ml). Human Non-active Mek-1-GST and human GST-MAP kinase (recombinant proteins produced in E. coli).
Stock Solutions Raf/Mek Cascade Assay:
• 1. Assay Dilution Buffer (ADB): 20 mM MOPS, pH 7.2, 25 mM β-glycerol phosphate, 5 mM EGTA, 1 mM sodium orthovanadate, 1 mM dithiothreitol; • 2. Magnesium/ATP Cocktail: 500 μM cold ATP and 75 mM magnesium chloride in ADB; • 3. Active Kinase: Human Active c-Raf: Use at 0.4 U per assay point; • 4. Non-active GST-MEK1: Use at 0.1 μg per assay point; and • 5. Non-active GST-p42 MAP Kinase: Use at 1.0 μg per assay point. Stock Solutions ELISA: • 1. TBST-Tris (50 mM, pH 7.5), NaCl (150 mM), Tween-20 (0.05%); • 2. Superblock (Pierce); • 3. Anti-GST Ab (Pharmacia); • 4. Anti-Phospho MAPK (Sigma); and • 5. Anti-Mouse Ab/Europium conjugate (Wallac). Assay Procedure: First Stage: c-Raf Dependent Activation of GST-MEK and GST-MAPK • 1. Add […] of ADB per assay (i.e. per well of a 96 well plate); • 2. Add 10 ml of 0.5 mM cold ATP and 75 mM magnesium chloride in ADB; • 3. Add 2 ml of c-Raf (0.4 U/assay), in conjunction with 1.6 ml non-active MEK1 (0.4 […]/assay); • 4. Add 4 ml of non-active GST-p42 MAP Kinase (1.0 mg/assay); • 5. Incubate for 60 minutes at 30° C. in a shaking incubator; • 6. Transfer this mixture to an anti-GST Ab coated 96 well plate (Nunc Immunosorb plates coated o/n with a-GST, then blocked with Pierce Superblock); • 7. Incubate for 60 minutes at 30° C. in a shaking incubator; • 8. Wash 3× with TBST, add Anti-Phospho MAPK (Sigma) (1:3000); • 9. Incubate for 60 minutes at 30° C. in a shaking incubator; • 10. Wash 3× with TBST, add Anti-Mouse Ab/Europium conjugate (Wallac) (1:500); • 11. Incubate for 60 minutes at 30° C. in a shaking incubator; • 12. Wash 3× with TBST, Read plates in Wallac Victor model Plate Reader; and • 13. Collect data analyze in Excel for single point and IC50 determinations.
Single point assay—% inhibition at […] (% Inhibition=1−cpd·treated sample/untreated control). IC50 determinations—done on compounds from single point assays with >80% inhibition. Typically, the Raf/Mek assay is run at compound concentrations from 10 μM to 1 nM in half log dilutions. (% inhibition is determined for each compound concentration). The results obtained measure Raf and/or Mek kinase inhibition, and for representative compounds of this invention are listed in Table 1.

BxPC3 = test: Cell based screen for inhibitors of Raf and/or Mek kinase (SRB), BxPC3; conditions: Homo sapiens, BXPC-3, BxPC3 cells, (a)/(b) = average of two/three runs
Protocol: [The procedure below names another cell line; the source lists this cell line under the same test.] (§1) Cell Based Screen for Inhibitors of Raf and/or Mek Kinase. Materials
(§2) Cells are plated at 2000 cells per well for cell line LoVo and 1500 cells for cell line CaCo-2 in 96 well plates. Cells are plated in media (200 μl) and allowed to adhere overnight at 37° C. At 24 hours post plating, compounds are added directly at a volume of 0.5 μl. For the qualitative screen (compounds screened at 25 μM) compound is added directly to cells. For the quantitative screen, compound is first diluted in DMSO to generate concentrations of compound or reference standard of: 1, 5, 10 and 25 μM. It is advisable to make the dilutions in an identical 96 well plate so that compounds can be added using a multichannel micropipettor set at 0.5 μl. The cells are then incubated for four days after which the media is removed using a 12 well manifold by first tipping the plate forward at a 45 degree angle and then inserting the manifold in an upright orientation to prevent the tips of the manifold from disturbing cells at the bottom of the plate. 200 μl of normal saline is then added to each well using an 8 well multichannel pipettor, followed by the careful addition of 50 μl of 50% TCA. The plates are then incubated for 2 hours at 4° C., after which the supernatant is removed using the same technique as above and the plated cells are washed twice with 200 μl water. The plates are then air dried and 50 μl of SRB stock solution is carefully added so that the entire bottom of each well is covered. This again can be done using an 8 well multichannel pipettor. The SRB is incubated with fixed cells for 15 minutes at room temperature after which the SRB is removed with the manifold as described above and the plates washed twice with 350 μl of 1% acetic acid per well each time. The plates are then air dried after which the bound SRB is released from protein by the addition of 200 μl of Tris base. Resolubilizing the SRB is aided by placing the plates on a rotator for 15-30 minutes. The absorbance of each well is determined at 550 or 562 nm using a microtiter plate reader.
(§3) Each compound or dilution thereof is performed in triplicate. Outliers are identified by visual inspection of the data. Each plate should have a “0” control (vehicle only).
(§4) Quantitative Assay: A standard curve is constructed by plotting the concentration of compound against the average absorbance calculated at that concentration. A curve is plotted and the concentration at which the curve passes through the 50% the absorbance mark seen in the “0” control well is the IC50 calculated for that compound. Multiple entries for a given compound indicate that it is tested multiple times.

LoVo = test: Cell based screen for inhibitors of Raf and/or Mek kinase (SRB), LoVo; design: species or system human; conditions: Homo sapiens, 96 h, LoVo cells, four days incubation, (a)/(b)/(c) = average of two/three/five runs
Protocol: as §1
Cell Lines: Human adenocarcinoma cell line LoVo, known to be growth inhibited by low nM concentrations of a reference standard inhibitor of Ras and human adenocarcinoma cell line CaCo-2, known to be growth resistant to the same reference compound.
Cell Media: RPMI 1640 with 10% Fetal Bovine Serum supplemented with L-glutamine and Penicillin/Streptomycin.
as §2, §3, §4

T2 sequence (P04049 whole entry): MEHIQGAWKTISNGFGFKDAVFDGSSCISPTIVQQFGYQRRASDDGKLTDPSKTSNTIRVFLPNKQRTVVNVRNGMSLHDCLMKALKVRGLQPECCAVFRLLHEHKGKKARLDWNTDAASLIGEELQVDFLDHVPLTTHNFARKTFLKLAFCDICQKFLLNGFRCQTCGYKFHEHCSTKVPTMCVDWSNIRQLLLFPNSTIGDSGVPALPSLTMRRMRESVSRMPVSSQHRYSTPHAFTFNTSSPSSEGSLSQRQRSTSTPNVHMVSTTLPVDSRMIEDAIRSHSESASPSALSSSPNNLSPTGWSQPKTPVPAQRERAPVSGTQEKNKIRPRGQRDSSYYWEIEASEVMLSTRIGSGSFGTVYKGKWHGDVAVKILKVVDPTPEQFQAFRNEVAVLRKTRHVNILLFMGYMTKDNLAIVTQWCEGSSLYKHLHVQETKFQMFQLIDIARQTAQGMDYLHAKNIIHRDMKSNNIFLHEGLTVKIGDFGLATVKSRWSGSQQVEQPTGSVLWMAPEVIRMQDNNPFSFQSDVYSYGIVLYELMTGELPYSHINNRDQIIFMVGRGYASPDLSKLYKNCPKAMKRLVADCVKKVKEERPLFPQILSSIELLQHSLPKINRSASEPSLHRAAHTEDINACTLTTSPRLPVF
T2 sequence (Q02750 whole entry): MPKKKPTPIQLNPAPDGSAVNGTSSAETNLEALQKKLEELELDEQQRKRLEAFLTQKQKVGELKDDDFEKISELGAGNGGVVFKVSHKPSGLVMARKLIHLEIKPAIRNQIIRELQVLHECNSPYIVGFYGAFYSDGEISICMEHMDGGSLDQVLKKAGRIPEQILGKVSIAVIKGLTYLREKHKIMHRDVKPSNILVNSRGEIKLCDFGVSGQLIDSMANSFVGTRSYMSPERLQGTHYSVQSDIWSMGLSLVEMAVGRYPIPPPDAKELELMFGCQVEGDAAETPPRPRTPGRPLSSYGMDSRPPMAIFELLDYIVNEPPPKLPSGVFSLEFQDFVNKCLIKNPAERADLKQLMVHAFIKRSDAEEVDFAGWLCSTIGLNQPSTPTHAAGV
T1 sequence (P12931 whole entry): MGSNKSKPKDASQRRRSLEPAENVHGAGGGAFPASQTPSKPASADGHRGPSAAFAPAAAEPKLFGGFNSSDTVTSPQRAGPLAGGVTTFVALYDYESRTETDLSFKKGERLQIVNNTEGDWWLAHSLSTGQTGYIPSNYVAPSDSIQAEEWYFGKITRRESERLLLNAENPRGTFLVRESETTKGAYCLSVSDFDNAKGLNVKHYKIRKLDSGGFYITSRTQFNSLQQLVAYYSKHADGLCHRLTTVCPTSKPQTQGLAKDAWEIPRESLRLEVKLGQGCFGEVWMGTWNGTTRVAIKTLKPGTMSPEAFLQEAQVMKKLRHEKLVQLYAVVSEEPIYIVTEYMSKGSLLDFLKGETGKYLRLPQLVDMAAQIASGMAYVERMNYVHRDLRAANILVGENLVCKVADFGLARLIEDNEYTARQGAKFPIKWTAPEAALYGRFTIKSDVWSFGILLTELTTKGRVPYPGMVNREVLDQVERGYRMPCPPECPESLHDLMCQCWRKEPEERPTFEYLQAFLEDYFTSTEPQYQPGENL

melting point [°C]	IC50 (p60c-src) [nM]	IC50 (HT-29 cells) [nM]	IC50 [2] [nM]	IC50 (BxPC3) [nM]	IC50 (LoVo) [nM]	SMILES	IC50 [1] [nM]
130 to 132	1	2700	–	–	–	COc1cc(Nc2c(C#N)cnc3cc(OCCCN4CCC(N5CCCCC5)CC4)c(OC)cc23)c(Cl)cc1Cl [Example 35, 7-(3-[1,4′-Bipiperidin]-1′-ylpropoxy)-4-[(2,4-dichloro-5-methoxyphenyl)amino]-6-methoxy-3-quinolinecarbonitrile]	140
108 to 112	0.55	2600	250	–	–	COc1cc(Nc2c(C#N)cnc3cc(OCCCN4CCC(N5CCCC5)CC4)c(OC)cc23)c(Cl)cc1Cl [Example 34]	466

Further lines, the molecule ahead of its results:

SMILES	melting point [°C]	IC50 (p60c-src) [nM]	IC50 (HT-29 cells) [nM]	IC50 [2] [nM]	IC50 (BxPC3) [nM]	IC50 (LoVo) [nM]	IC50 [1] [nM]
COc1cc(Nc2c(C#N)cnc3cc(N4CCC(N5CCCC5)CC4)c(OC)cc23)c(Cl)cc1Cl [Example 31, 4-[(2,4-dichloro-5-methoxyphenyl)amino]-6-methoxy-7-(4-pyrrolidin-1-ylpiperidin-1-yl)quinoline-3-carbonitrile]	225 to 227	–	–	–	–	–	2400
COc1cc2c(Nc3ccc(Sc4ccccn4)cc3)c(C#N)cnc2cc1N1CCC(N2CCCC2)CC1 [Example 13, 6-Methoxy-4-[4-(pyridin-2-ylsulfanyl)phenylamino]-7-(4-pyrrolidin-1-yl-piperidin-1-yl)-quinoline-3-carbonitrile]	182 to 184	–	–	1430	600	470	–
COc1cc2c(Nc3ccc(Sc4nccn4C)c(Cl)c3)c(C#N)cnc2cc1OCCCN1CCC(N2CCCC2)CC1 [Example 33, 4-{3-Chloro-4-[(1-methyl-1H-imidazole-2-yl)sulfanyl]anilino}-6-methoxy-7-{3-[4-(1-pyrrolidinyl)-1-piperidinyl]propoxy}-3-quinolinecarbonitrile]	196 to 198	–	–	3	49	47	–
COc1cc2c(Nc3ccc(Sc4nccn4C)c(Cl)c3)c(C#N)cnc2cc1N1CCC(N2CCCC2)CC1 [Example 11, 4-({3-chloro-4-[(1-methyl-1H-imidazole-2-yl)thio]phenyl}amino)-6-methoxy-7-(4-pyrrolidin-1-ylpiperidin-1-yl)quinoline-3-carbonitrile]	225 to 229	281	–	114	42	29	–
